Experimental findings from ChEMBL document CHEMBL3870360, “GluN2A-Selective Pyridopyrimidinone Series of NMDAR Positive Allosteric Modulators with an Improved in Vivo Profile” (ACS Med Chem Lett, 2017) are described below.

The structures appear in SMILES notation. pEC50: −log10 of the molar value. Converted amounts (≈) assume the structure as drawn.

For data set [1], the target named is T1, Glutamate receptor 2 (Homo sapiens, UniProt P42262). In words: Positive allosteric modulation of human GluA2 receptor flop isoform assessed as increase in glutamate-induced calcium flux at 125 uM measured at time interval of 5 mins in presence of saturating glycine by calcium dye-based fluorescence assay relative to glutamate. The format is Functional, single protein. (A change in cytosolic calcium serves as a functional read-out for many receptors and channels.)

Data set [2] concerns the target T1, Glutamate receptor 2. In words: Positive allosteric modulation of human GluA2 receptor flip isoform assessed as increase in glutamate-induced calcium flux at 125 uM measured at time interval of 5 mins in presence of saturating glycine by calcium dye-based fluorescence assay relative to glutamate. The format is single protein.
Data set [3] relates to MDR1 (human). In words: Efflux ratio of permeability from basolateral to apical over apical to basolateral side in MDCK cells expressing human MDR1. The format is ADME, cell-based, Canis lupus familiaris. Conditions: dog.
Data set [4] deals with T2, Glutamate NMDA receptor; GRIN1/GRIN2A (Homo sapiens, UniProt Q05586+Q12879). In words: Positive allosteric modulation of GluN1/GluN2A receptor (unknown origin) expressed in CHO cells assessed as increase in glutamate-induced calcium flux at 125 uM measured at time interval of 5 mins in presence of saturating glycine by calcium dye-based fluorescence assay relative to glutamate. Type of data set: cell-based.

The target in data set [5] is T1, Glutamate receptor 2. Kind of data set: Positive allosteric modulation of human GluA2 receptor flip isoform assessed as increase in glutamate-induced calcium flux measured at time interval of 5 mins in presence of saturating glycine by calcium dye-based fluorescence assay. Type of data set: Functional, single protein.
In data set [6] the target is T2, Glutamate NMDA receptor; GRIN1/GRIN2A. In words: Positive allosteric modulation of GluN1/GluN2A receptor (unknown origin) expressed in CHO cells assessed as increase in glutamate-induced calcium flux measured at time interval of 5 mins in presence of saturating glycine by calcium dye-based fluorescence assay. Type of data set: cell-based.
The target of data set [7] is T1, Glutamate receptor 2. Kind of data set: Positive allosteric modulation of human GluA2 receptor flop isoform assessed as increase in glutamate-induced calcium flux measured at time interval of 5 mins in presence of saturating glycine by calcium dye-based fluorescence assay. Type of data set: Functional, single protein.
Data set [8] can be described thus: Activity at AMPA receptor in mouse hippocampal brain slices assessed as electrical stimulation-induced excitatory post synaptic potential at -70 mV holding potential by electrophysiology method. Type of data set: ADME.
Data set [9] has as its target T2, Glutamate NMDA receptor; GRIN1/GRIN2A. Kind of data set: Deactivation of GluN1/GluN2A receptor (unknown origin) expressed in CHO cells assessed as time constant for signal decay at 1 uM preincubated followed by glutamate addition in presence of saturating glycine measured after glutamate removal by electrophysiology method. Type of data set: cell-based.
Data set [10] has as its target Glutamate NMDA receptor; GRIN1/GRIN2B (Homo sapiens, UniProt Q05586+Q13224). In words: Positive allosteric modulation of GluN1/GluN2B receptor (unknown origin) expressed in HEK293 cells assessed as increase in glutamate-induced calcium flux at 125 uM measured at time interval of 5 mins in presence of saturating glycine by calcium dye-based fluorescence assay relative to glutamate. The format is ADME, cell-based.

A short description of data set [11]: Lipophilicity, log D of the compound. The note with it: octanol/water. Type of data set: physicochemical.
Data set [12] in a line: Half life in mouse at 0.5 mg/kg, iv. The format is ADME, organism-based. Conditions: in vivo.
Data set [13] in a line: Clearance in mouse blood at 0.5 mg/kg, iv. The format is ADME, organism-based.
Data set [14] is described as follows: Unbound Cmax in mouse at 5 mg/kg, po. Type of data set: ADME, organism-based. The note with it: in vivo.
Data set [15] can be described thus: Kinetic solubility of the compound. The note with it: read-out: Kinetic_solubility. The format is physicochemical.
Data set [16] in a line: Oral bioavailability in mouse at 5 mg/kg. The format is ADME, organism-based. Conditions: in vivo.
The nature of data set [17]: Unbound clearance in mouse blood at 0.5 mg/kg, iv. Type of data set: ADME, organism-based. The note with it: in vivo.
Data set [18] in a line: Ratio of fCmax in mouse at 5 mg/kg, po to EC50 for GluN2A receptor (unknown origin) expressed in CHO cells co-expressing GluN1 receptor.
Data set [19] concerns the target Ionotropic glutamate receptor NMDA 1/2C (Homo sapiens, UniProt Q05586+Q14957). In words: Positive allosteric modulation of GluN1/GluN2C receptor (unknown origin) assessed as increase in glutamate-induced calcium flux measured at time interval of 5 mins in presence of saturating glycine by calcium dye-based fluorescence assay.
Data set [20] in a line: Selectivity ratio of EC50 for GluN1/GluN2B receptor (unknown origin) expressed in HEK293 cells to EC50 for GluN1/GluN2A receptor (unknown origin) expressed in CHO cells. The format is cell-based. Conditions: human.
A short description of data set [21]: Selectivity ratio of EC50 for human GluA2 flop isoform receptor to EC50 for GluN1/GluN2A receptor (unknown origin) expressed in CHO cells. Type of data set: ADME, cell-based.
Data set [22] can be described thus: Volume of distribution at steady state in mouse at 0.5 mg/kg, iv. Type of data set: ADME, organism-based. The note with it: in vivo, read-out: Vdss.
Data set [23] concerns the target Ionotropic glutamate receptor NMDA 1/2D (Homo sapiens, UniProt O15399+Q05586). In words: Positive allosteric modulation of GluN1/GluN2D receptor (unknown origin) assessed as increase in glutamate-induced calcium flux measured at time interval of 5 mins in presence of saturating glycine by calcium dye-based fluorescence assay.
Data set [24] in a line: Protein binding in mouse plasma. The format is ADME, cell-free. Conditions: read-out: PPB (converted).
Data set [25] is described as follows: Ratio of unbound concentration in brain to plasma in mouse at 5 mg/kg, po at 1 hr. The format is ADME, organism-based. Conditions: brain and plasma, read-out: K(p,uu,brain).
Data set [26] in a line: Unbound AUClast in mouse at 5 mg/kg, po. The note with it: in vivo. The format is ADME, organism-based.
The nature of data set [27]: Protein binding in human plasma. Type of data set: ADME, cell-free. The note with it: read-out: PPB (converted).
A short description of data set [28]: Drug uptake in mouse brain. The format is ADME, tissue-based. Conditions: in vivo.
A short description of data set [29]: Selectivity ratio of EC50 for human GluA2 flip isoform receptor to EC50 for GluN1/GluN2A receptor (unknown origin) expressed in CHO cells. The format is ADME, cell-based.

T1 sequence (P42262 whole entry, canonical isoform): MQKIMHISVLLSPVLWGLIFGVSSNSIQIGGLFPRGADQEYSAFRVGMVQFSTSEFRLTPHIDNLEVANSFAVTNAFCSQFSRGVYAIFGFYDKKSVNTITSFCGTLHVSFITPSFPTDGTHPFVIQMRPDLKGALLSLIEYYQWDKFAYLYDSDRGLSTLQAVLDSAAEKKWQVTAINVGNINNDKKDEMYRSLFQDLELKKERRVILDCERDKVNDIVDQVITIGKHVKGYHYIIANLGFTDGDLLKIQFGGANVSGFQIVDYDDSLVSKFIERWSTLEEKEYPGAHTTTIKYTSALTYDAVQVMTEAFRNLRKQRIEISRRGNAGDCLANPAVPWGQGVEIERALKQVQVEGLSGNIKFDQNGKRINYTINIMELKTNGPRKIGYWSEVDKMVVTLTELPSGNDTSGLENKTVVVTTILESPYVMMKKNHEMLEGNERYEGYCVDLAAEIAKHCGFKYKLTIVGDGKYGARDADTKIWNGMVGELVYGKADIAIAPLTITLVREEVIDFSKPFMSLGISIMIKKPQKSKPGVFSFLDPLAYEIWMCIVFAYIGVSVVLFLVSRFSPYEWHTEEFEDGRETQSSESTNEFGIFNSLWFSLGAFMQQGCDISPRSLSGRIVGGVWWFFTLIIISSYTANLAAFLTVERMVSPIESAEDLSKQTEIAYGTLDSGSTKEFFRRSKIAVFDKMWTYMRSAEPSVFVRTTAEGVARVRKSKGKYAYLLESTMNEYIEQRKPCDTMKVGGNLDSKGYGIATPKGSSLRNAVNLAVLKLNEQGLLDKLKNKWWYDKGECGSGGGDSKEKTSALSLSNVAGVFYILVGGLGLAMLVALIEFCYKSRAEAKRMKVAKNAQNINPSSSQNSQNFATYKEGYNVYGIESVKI
Sequence of Ionotropic glutamate receptor NMDA 1/2D (O15399 whole entry, other chains not shown): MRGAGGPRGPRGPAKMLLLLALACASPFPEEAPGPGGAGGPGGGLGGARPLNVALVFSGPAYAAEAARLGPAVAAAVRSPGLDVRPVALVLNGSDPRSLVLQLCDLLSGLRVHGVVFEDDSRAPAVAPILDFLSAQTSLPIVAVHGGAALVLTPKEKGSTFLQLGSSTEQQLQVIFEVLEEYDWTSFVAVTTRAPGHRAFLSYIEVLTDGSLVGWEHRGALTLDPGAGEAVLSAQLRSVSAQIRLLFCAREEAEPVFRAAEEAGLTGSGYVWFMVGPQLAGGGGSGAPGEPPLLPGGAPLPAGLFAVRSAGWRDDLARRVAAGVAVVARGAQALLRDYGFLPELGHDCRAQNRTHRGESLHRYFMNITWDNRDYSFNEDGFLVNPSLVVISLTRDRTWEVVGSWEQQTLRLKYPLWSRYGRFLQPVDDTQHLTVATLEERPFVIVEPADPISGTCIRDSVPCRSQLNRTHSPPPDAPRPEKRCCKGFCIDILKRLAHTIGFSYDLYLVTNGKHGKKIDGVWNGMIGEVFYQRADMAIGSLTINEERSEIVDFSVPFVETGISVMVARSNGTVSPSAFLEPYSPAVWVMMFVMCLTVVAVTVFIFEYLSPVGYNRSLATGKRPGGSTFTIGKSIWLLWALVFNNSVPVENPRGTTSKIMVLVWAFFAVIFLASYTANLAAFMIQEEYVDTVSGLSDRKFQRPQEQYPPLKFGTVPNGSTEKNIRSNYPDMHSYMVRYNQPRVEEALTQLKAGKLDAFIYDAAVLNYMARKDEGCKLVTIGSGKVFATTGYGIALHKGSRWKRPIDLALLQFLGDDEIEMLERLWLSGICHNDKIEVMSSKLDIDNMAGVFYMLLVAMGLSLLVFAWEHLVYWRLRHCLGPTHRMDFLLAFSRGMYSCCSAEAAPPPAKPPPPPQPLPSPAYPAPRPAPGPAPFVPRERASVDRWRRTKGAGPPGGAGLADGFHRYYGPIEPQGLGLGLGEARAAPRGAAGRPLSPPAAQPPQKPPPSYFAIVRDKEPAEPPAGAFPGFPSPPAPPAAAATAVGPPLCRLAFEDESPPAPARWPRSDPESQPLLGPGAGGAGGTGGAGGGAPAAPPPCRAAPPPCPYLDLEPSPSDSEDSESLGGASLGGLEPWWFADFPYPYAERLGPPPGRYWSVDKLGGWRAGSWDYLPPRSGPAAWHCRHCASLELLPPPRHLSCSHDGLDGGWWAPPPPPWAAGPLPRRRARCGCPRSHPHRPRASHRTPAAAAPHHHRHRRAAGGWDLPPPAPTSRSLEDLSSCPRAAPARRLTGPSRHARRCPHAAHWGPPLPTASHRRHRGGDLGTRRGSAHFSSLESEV
Sequence of Ionotropic glutamate receptor NMDA 1/2C (Q14957 whole entry, other chains not shown): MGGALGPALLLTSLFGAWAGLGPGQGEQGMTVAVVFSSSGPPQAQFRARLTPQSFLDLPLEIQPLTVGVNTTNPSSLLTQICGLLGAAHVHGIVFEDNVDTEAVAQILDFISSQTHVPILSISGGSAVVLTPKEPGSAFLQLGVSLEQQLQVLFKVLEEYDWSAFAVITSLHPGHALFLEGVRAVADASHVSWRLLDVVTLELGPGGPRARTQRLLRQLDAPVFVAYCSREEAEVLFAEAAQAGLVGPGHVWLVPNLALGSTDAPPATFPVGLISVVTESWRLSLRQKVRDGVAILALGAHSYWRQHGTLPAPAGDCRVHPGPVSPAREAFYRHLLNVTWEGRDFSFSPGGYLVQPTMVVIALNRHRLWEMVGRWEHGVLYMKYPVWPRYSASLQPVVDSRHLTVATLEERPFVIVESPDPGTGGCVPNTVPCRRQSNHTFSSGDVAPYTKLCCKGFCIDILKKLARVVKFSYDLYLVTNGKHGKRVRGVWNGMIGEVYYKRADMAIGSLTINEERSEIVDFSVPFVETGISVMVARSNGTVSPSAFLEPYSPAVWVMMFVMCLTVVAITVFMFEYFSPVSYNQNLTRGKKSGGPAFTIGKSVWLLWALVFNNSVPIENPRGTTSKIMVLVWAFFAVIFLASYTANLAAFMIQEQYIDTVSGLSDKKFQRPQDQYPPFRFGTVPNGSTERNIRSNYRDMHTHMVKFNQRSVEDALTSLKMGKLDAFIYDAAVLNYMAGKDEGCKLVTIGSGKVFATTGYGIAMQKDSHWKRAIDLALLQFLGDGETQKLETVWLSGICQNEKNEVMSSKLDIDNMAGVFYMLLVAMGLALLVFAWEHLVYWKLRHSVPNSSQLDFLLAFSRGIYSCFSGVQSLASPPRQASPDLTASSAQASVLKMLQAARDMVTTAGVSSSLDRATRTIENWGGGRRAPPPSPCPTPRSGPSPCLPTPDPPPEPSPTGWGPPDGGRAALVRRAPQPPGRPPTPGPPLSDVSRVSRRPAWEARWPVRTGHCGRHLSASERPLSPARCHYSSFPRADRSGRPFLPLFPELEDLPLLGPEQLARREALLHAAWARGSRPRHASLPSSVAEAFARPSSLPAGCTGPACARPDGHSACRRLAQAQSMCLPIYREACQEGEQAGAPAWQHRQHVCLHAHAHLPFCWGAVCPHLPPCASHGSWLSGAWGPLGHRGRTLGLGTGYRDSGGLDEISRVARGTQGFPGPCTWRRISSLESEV
Sequence of Glutamate NMDA receptor; GRIN1/GRIN2B (Q13224 whole entry, other chains not shown): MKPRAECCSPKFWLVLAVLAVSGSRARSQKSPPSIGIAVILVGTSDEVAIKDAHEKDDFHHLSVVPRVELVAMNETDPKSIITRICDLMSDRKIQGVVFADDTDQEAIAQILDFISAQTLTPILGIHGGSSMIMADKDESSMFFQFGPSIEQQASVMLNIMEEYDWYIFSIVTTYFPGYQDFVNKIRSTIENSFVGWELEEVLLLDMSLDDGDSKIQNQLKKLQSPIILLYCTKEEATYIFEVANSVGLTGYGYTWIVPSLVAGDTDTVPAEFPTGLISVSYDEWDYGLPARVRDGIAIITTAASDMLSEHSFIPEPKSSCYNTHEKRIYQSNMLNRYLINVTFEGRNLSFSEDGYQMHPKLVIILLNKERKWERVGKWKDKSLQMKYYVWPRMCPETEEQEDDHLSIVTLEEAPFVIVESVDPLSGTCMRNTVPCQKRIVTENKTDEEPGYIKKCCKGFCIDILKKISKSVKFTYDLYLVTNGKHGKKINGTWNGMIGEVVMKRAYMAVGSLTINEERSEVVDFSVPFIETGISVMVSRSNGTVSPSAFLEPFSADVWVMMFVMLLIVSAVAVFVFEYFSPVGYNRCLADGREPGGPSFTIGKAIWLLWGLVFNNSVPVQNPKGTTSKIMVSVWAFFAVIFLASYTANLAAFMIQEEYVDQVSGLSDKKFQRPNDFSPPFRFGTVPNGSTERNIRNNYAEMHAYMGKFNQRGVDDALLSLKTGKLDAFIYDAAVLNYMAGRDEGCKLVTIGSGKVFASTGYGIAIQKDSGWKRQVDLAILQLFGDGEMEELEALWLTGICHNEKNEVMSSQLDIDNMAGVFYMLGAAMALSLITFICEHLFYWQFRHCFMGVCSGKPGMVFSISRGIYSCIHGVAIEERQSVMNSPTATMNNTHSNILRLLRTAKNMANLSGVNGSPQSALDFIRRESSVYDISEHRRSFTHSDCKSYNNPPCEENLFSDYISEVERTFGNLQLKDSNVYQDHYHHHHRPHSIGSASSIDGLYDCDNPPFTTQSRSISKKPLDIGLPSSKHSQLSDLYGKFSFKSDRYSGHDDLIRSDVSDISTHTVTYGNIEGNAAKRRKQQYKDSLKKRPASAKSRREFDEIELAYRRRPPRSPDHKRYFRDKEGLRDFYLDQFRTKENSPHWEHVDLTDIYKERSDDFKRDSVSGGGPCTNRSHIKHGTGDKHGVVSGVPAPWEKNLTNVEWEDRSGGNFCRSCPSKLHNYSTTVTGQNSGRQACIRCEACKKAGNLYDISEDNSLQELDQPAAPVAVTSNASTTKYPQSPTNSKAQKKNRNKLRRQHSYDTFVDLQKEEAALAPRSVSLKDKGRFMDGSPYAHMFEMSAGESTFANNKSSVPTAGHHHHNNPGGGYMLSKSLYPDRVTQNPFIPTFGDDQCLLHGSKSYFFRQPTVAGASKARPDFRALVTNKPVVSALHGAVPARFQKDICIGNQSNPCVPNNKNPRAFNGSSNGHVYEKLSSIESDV

With `N#C[C@@H]1C[C@H]1c1c(F)ccc2nc(Cn3nc(C(F)(F)F)cc3Cl)cc(=O)n12`, the Emax (as a rule, the greatest response seen or fitted, relative to the assay's reference) at 125 µM in data set [1] was found to be 69%; in data set [2], 67%. Also, the efflux ratio – broadly, a quotient of directional permeabilities that is used to spot active efflux – in data set [3] was found to be 1.5. Besides, the Emax in data set [4] was 151%. Further, the results for the pEC50 in [5], in data set [6] and in data set [7] were 5.51, 7.68 and 6.34, respectively.
Regarding `N#C[C@@H]1C[C@H]1c1c(C(F)(F)F)sc2nc(Cn3nc(C(F)(F)F)cc3Cl)cc(=O)n12`, in [8], the pEC50 (as a rule, the negative decadic logarithm of the EC50, by convention in mol/L) is 5.24. Besides, the TIME in data set [9] was 0.000584 h.
As to `Cc1ccc2nc(Cn3nc(C(F)(F)F)cc3Cl)cc(=O)n2c1-c1cncnc1`, the Emax at 125 µM in [1] turned out to be 3%; in [2], 5%. The Emax in data set [4] is 84%. Moreover, in data set [6], the pEC50 was 5.01.
With `Cc1sc2nc(Cn3nc(C(F)(F)F)cc3Cl)cc(=O)n2c1-c1cncnc1`, the Emax at 125 µM in [1] is 9%; in data set [2] it was 28%. Moreover, in [4], the Emax was found to be 88%. For the same molecule, the pEC50 in data set [5] was 5.02; in data set [6], 5.85; in [7], 5.92.
For the molecule `CCNC(=O)c1c(C)ccc2nc(Cn3nc(C(F)(F)F)cc3Cl)cc(=O)n12`, the Emax at 125 µM in data set [1] is -1%; in [2], 1%. Also, the Emax in data set [4] is 129%. For the same molecule, in [6], the pEC50 is 5.60.
Take `Cc1ccc2nc(Cn3nc(C(F)(F)F)cc3Cl)cc(=O)n2c1C1CC1`: the Emax at 125 µM turned out to be 3% in [1] and 7% in data set [2]. Besides, the Emax in [4] came out at 107%. The results for the pEC50 in data set [5], in [6] and in [7] were 5.89, 6.55 and 5.60, respectively.
With `N#C[C@@H]1C[C@H]1c1cccc2nc(Cn3nc(C(F)(F)F)cc3Cl)cc(=O)n12`, the Emax at 125 µM in data set [1] and in data set [2] was 90% each time. For the same molecule, the Emax in data set [4] was 148%. In addition, the negative-log EC50 (pEC50) was 6.09 in [5], 7.62 in [6] and 6.39 in data set [7].
Regarding `N#C[C@@H]1C[C@H]1c1c(Cl)ccc2nc(Cn3nc(C(F)(F)F)cc3Cl)cc(=O)n12`, the Emax at 125 µM was determined as 96% in [10], 67% in [1] and 61% in [2]. Moreover, the logD (usually the decadic logarithm of the distribution of all forms, ionised or not, between an organic phase and buffer at a given pH) in data set [11] was found to be 1.8. For the same molecule, the pEC50 in data set [8] is under 4.82; in data set [5], 4.35; in data set [19], 5.33; in data set [23], 5.02; in data set [7], 4.31. In data set [12], the half-life – broadly, the time in which the quantity being followed falls by half – is 8 h. The clearance (in general, the volume of plasma or blood freed of the substance per unit of time) in [13] is 10 mL/min/kg. For the same molecule, the fCmax in [14] came to 0.06 µM. In data set [15], the solubility kinetic was determined as 43.5 µM (≈ 18.6 µg/mL). Besides, the efflux ratio in data set [3] came out at 1.6. Further, the bioavailability (in general, the share of a dose that reaches the circulation, judged against a reference dose that is usually intravenous) in data set [16] stood at 37%. In data set [17], this molecule yielded a CL free of 132 mL/min/kg. Also, the Ratio in data set [18] is recorded as 1.6. The “Ratio EC50” value is over 100 in data set [20], over 1000 in data set [21] and over 1000 in data set [29]. The Vd in [22] stood at 7 L/kg. For the same molecule, the fraction unbound is 0.076 in [24] and 0.056 in data set [27]. Also, the Kp uu at 1 h in [25] stood at 0.67. In [26], this molecule had a fAUClast of 0.53 µM·h. Besides, in data set [28], the Drug uptake turned out to be 94.9%.
For `Cc1sc2nc(Cn3nc(C(F)(F)F)cc3Cl)cc(=O)n2c1C1CC1`, the Emax at 125 µM in data set [1] was 32%; in data set [2], 51%. Also, the Emax in data set [4] was 116%. In data set [6], the pEC50 is 6.57.
Turning to `COc1ccc2nc(Cn3nc(C(F)(F)F)cc3Cl)cc(=O)n2c1[C@@H]1C[C@H]1C#N`, the Emax at 125 µM in data set [1] was found to be 15%; in data set [2] it was 28%. Also, the efflux ratio in data set [3] was found to be 3.2. In [4], the Emax came to 120%. In addition, in [6], the pEC50 was 7.10.
As for `COc1cc([C@@H]2C[C@H]2C#N)n2c(=O)cc(Cn3nc(C(F)(F)F)cc3Cl)nc2c1`, the Emax at 125 µM in data set [1] stood at 67%; in data set [2], 51%. The efflux ratio in [3] was 2.2. Moreover, the Emax in data set [4] was found to be 140%. The values for the pEC50 in [5], in data set [6] and in data set [7] were 5.17, 6.89 and 5.66, respectively.
For the molecule `CCNC(=O)c1c(C)sc2nc(Cn3nc(C(F)(F)F)cc3Cl)cc(=O)n12`, the Emax at 125 µM in data set [1] is 16%; in data set [2] it was 8%. The Emax in [4] came out at 120%.
As for `N#C[C@@H]1C[C@H]1c1cc(C(F)(F)F)cc2nc(Cn3nc(C(F)(F)F)cc3Cl)cc(=O)n12`, the Emax at 125 µM in [1] stood at 77%; in data set [2], 27%. Moreover, the efflux ratio in [3] was determined as 2.1. The Emax in [4] was 142%. The figures for the pEC50 in data set [5] and in data set [7] were 4.57 and 4.80, respectively.
Take `Cc1ccc2nc(Cn3nc(C(F)(F)F)cc3Cl)cc(=O)n2c1[C@@H]1C[C@H]1C#N`: the Emax at 125 µM came to 63% in [1] and 66% in [2]. For the same molecule, the efflux ratio in data set [3] was 2. The Emax in data set [4] came to 137%. Moreover, the pEC50 in data set [5] is 4.17; in data set [6] it was 7.39; in data set [7], 4.51.
Take `Cc1cc([C@@H]2C[C@H]2C#N)n2c(=O)cc(Cn3nc(C(F)(F)F)cc3Cl)nc2c1`: the Emax at 125 µM turned out to be 83% in data set [1] and 86% in data set [2]. Moreover, the efflux ratio in [3] was 2.2. Also, the Emax in data set [4] turned out to be 144%. Also, the pEC50 in data set [5] was 5.51; in [7], 6.68.
On to `Cc1sc2nc(Cn3nc(C(F)(F)F)cc3Cl)cc(=O)n2c1[C@@H]1C[C@H]1C#N`, for which the Emax at 125 µM in data set [1] is 93%; in data set [2], 91%. Moreover, the Emax in [4] worked out at 151%.
